Laboratory results reported in patent US10137169B2, “Compositions and uses thereof” (FOLLICUM AB, priority 2011, dated 2018).
“Also recorded” adds a separate entry of the source.

How the values were obtained:
Mice (C57BL/6) [1] = assay: Observation of melanogenesis / anagen induction, external and peeled skin (Example D); assay type: in vivo; conditions: 60 nM; for Black colour in peeled skin (day 16): animals out of 5; for % anagen induction**: with respect to black colour in peeled skin; for Black colour in peeled skin (day 16) / % anagen induction**: day 16; for % anagen induction*: with respect to external skin colour change from pink to black
Source text: (§1) Animals and treatments are as described above in Example B.
(§2) All animals were sacrificed on day 16.
Following completion of the term of hair growth assessment for Example B, the animals were euthanized and dorsal skin peeled and removed for observation of the internal surface.
The hair growth cycle consists of three phases: a resting telogen phase (C57BL/6 skin is a pale pink colour), an active hair growth anagen phase (where the skin becomes dark gray or black), and finally a catagen phase (where hair growth stops, and the skin transitions back to the telogen phase, returning to a pale pink colour).
(§3) In the present study, the animals were preselected for pink skin (telogen phase) and the test polypeptide was administered by subcutaneous/topical route. A good hair growth promoter triggers the transition from the resting telogen phase to the active anagen phase, and thus a transition from light skin to dark skin. This dark pigmentation may result from the collection of melanin in the hair follicles, in preparation for new hair growth during the anagen phase. Melanin synthesis of follicular melanocytes is strictly coupled to the anagen phase, ceases during catagen and is absent in telogen phase. […] Upon termination, the dorsal skin of the animals was then excised out by peeling and the peeled skin reversed and observed for the induction of melanogenesis indicated by visual blackening. […] A good hair growth promoter increases no. of follicles in sub cutis and skin thickness.

Mice (C57BL/6) [2] = assay: In vivo study of hair growth effect in mice, hair growth score (Example B); design: Hair growth score / Hair growth score, Mean: scale not given here; conditions: for day from which hair growth was evident / hair growth effect / Hair growth score, Mean: 60 nM s.c. on Days 1, 5 and 9; for hair growth effect: assessment to day 16; for Hair growth score, Mean: mean of 5 animals
Description: Mice (C57BL/6) were used at an age of 6 to 8 weeks.
• Selection of animals in telogen phase of hair growth. • Clipping of dorsal back of animals • Subcutaneous injection of test peptide/vehicle • Visual analysis: Percentage anagen induction; Mean hair growth score; Visual melanogenesis: • Histological analysis: Follicle count in subcutis; Morphometry for skin thickness. Treatment Groups • Animals were assigned randomly to treatment groups (see Table 3)
• Animals were administered the specified treatment on Days 1, 5 and 9 • Treatment were administered by subcutaneous injection into dorsal clipped skin Scoring Criteria • The effect of the treatments was observed and scored daily according to the criteria in Table 4

Mice (C57BL/6) [3] = assay: Histological analysis of peeled skin: follicle count in subcutis and skin thickness (Example D); assay type: in vivo; design: Skin thickness: unit not given here; conditions: Mean ± sem, day 16, 60 nM
Description: as §1, §2
Peeled skin sections were prepared for histological analysis as described in Example A. Follicle count in the subcutis and skin thickness were then measured.
as §3

Mice (C57BL/6) [4] = assay: In vivo study of hair growth effect in mice of the wildtype osteopontin fragment (Example C); design: Hair growth score, Mean: scale not given here; conditions: for Hair growth score, Mean: mean of 6 animals
Description: Animals, as described above in Example B, were treated as described in Table 6:
• This sequence is a fragment of wildtype mouse osteopontin, and corresponds to the region of the protein from which “FOL-004” is derived (i.e. “FOL-004” is a mutated version of wildtype fragment “FOL-001”). • Animals were administered the specified treatment on Days 1, 5 and 9 • Treatment were administered by subcutaneous injection into dorsal clipped skin Scoring Criteria • The effect of the treatments was observed and scored daily as described in Example B. Results

male wtC57BL/6N mice = assay: In vivo study of hair follicle density in mouse skin after intracutaneous injection (Example A); conditions: data not shown
Source text: The modified osteopontin polypeptide sequence SEQ ID NO:1 was cloned into a pCEP4 expression vector by the use of XhoI and BamHI restriction enzyme sites. The pCEP4 expression vector contains an ampicillin resistance gene for expression in bacteria and a hygromycin resistance gene for expression in eukaryotic EBNA cells. The polypeptide containing vector were transformed into competent XL-10 bacteria cells, multiplied and isolated with Qiagen midi prep kit. Isolated vectors were then transfected into human EBNA cells by the use of Fugene transfection reagent according to manufacture protocol (Invitrogen).
Medium from EBNA cell culture containing the produced polypeptide were collected after three to four days of culture. Polypeptides produced by pCEP4 plasmid contain an inserted His-tag, which is used to facilitate the isolation with Ni-sepharose gel chromatography (Invitrogen). Collected medium was diluted with binding buffer (20 mM sodium phosphate, 500 mM sodium chloride, pH 7.8), Ni-sepharose suspension was added before incubation on shaker overnight at 4° C. […]
Protocol for Hematoxylin-staining of paraffin-embedded sections of Group 1 1. […] Mount slide using Permount and coveslip. a) the time depends on the type of hematoxylin used, 20 sec to 10 min (which can be determined by the use of test slides) b) filtrated before use Results

Substance	No. of animals showing hair growth (Mice (C57BL/6) [1])	Skin colour (external) (Mice (C57BL/6) [1])	Skin colour (external): animals with this colour (Mice (C57BL/6) [1])	Black colour in peeled skin (day 16) (Mice (C57BL/6) [1])	% anagen induction** (Mice (C57BL/6) [1]) [%]	% anagen induction* (Mice (C57BL/6) [1]) [%]	day from which hair growth was evident (Mice (C57BL/6) [2]) [days]	hair growth effect (Mice (C57BL/6) [2])	Hair growth score, Mean (Mice (C57BL/6) [2]; Day 1)	Hair growth score, Mean (Mice (C57BL/6) [2]; Day 2)	Hair growth score, Mean (Mice (C57BL/6) [2]; Day 5)	Hair growth score, Mean (Mice (C57BL/6) [2]; Day 6)	Hair growth score, Mean (Mice (C57BL/6) [2]; Day 7)	Hair growth score, Mean (Mice (C57BL/6) [2]; Day 8)	Hair growth score, Mean (Mice (C57BL/6) [2]; Day 9)	Hair growth score, Mean (Mice (C57BL/6) [2]; Day 12)	Hair growth score, Mean (Mice (C57BL/6) [2]; Day 13)	Hair growth score, Mean (Mice (C57BL/6) [2]; Day 14)	Hair growth score, Mean (Mice (C57BL/6) [2]; Day 15)	Hair growth score, Mean (Mice (C57BL/6) [2]; Day 16)	other results
VDTYDGDISVVYGLR (Preferred 15-amino acid peptide) [FOL-005]	5/5	Black	(5/5 animals)	3/5	60	100	5	rapid hair growth; also recorded: particular fast onset of action	0.0	0.0	1.3	1.7	1.9	2.1	2.3	2.7	2.8	2.8	3.0	3.0	Hair growth score (Mice (C57BL/6) [2]; Day 5, individual animal, 60 nM, 25 μl s.c. on Days 1, 5 and 9): 2.0; Follicle count in subcutis (no.) (Mice (C57BL/6) [3]; all animals): 34.80 ± 14.58 no.; Skin thickness (Mice (C57BL/6) [3]; all animals): 348.80 ± 40.05; Follicle count in subcutis (no.) (Mice (C57BL/6) [3]; animals in anagen only): 58 ± 14.58 no.; Skin thickness (Mice (C57BL/6) [3]; animals in anagen only): 348.80 ± 40.05
VDVPNGDISLAYGLR (Preferred 15-amino acid peptide (FOL-004))	5/5	Black	(5/5 animals)	1/5	20	100	5	rapid hair growth; also recorded: particular fast onset of action	0.0	0.0	1.7	2.1	2.4	2.5	2.6	2.7	2.7	2.7	2.9	3.0	Follicle count in subcutis (no.) (Mice (C57BL/6) [3]; all animals): 6.20 ± 5.80 no.; Skin thickness (Mice (C57BL/6) [3]; all animals): 312.2 ± 15.60; Follicle count in subcutis (no.) (Mice (C57BL/6) [3]; animals in anagen only): 29 ± 5.8 no.; Skin thickness (Mice (C57BL/6) [3]; animals in anagen only): 312.2 ± 15.60
VDVPNGRGDSLAYGLR (FOL-001) [fragment of wildtype mouse osteopontin, region from which FOL-004 is derived]																					day at which hair growth effect became evident (Mice (C57BL/6) [4]; 60 nM s.c. on Days 1, 5 and 9): ~9 days; hair growth effect (Mice (C57BL/6) [4]; 60 nM s.c. on Days 1, 5 and 9): delayed but detectable hair growth effect; plateau of hair growth score (Mice (C57BL/6) [4]; 60 nM s.c. on Days 1, 5 and 9): about 1.3; hair growth effect (Mice (C57BL/6) [4]; 60 nM s.c. on Days 1, 5 and 9, listed as equivalent non-mutated wild type sequence): delayed onset of hair growth stimulation; Hair growth score, Mean (Mice (C57BL/6) [4]; Day 1, 60 nM s.c. on Days 1, 5 and 9): 0; Hair growth score, Mean (Mice (C57BL/6) [4]; Day 2, 60 nM s.c. on Days 1, 5 and 9): 0; Hair growth score, Mean (Mice (C57BL/6) [4]; Day 5, 60 nM s.c. on Days 1, 5 and 9): 0.17; Hair growth score, Mean (Mice (C57BL/6) [4]; Day 6, 60 nM s.c. on Days 1, 5 and 9): 0.17; Hair growth score, Mean (Mice (C57BL/6) [4]; Day 7, 60 nM s.c. on Days 1, 5 and 9): 0.17; Hair growth score, Mean (Mice (C57BL/6) [4]; Day 8, 60 nM s.c. on Days 1, 5 and 9): 0.17; Hair growth score, Mean (Mice (C57BL/6) [4]; Day 9, 60 nM s.c. on Days 1, 5 and 9): 0.58; Hair growth score, Mean (Mice (C57BL/6) [4]; Day 12, 60 nM s.c. on Days 1, 5 and 9): 1.17; Hair growth score, Mean (Mice (C57BL/6) [4]; Day 13, 60 nM s.c. on Days 1, 5 and 9): 1.17; Hair growth score, Mean (Mice (C57BL/6) [4]; Day 14, 60 nM s.c. on Days 1, 5 and 9): 1.33; Hair growth score, Mean (Mice (C57BL/6) [4]; Day 15, 60 nM s.c. on Days 1, 5 and 9): 1.33; maximum effect relative to that observed with FOL-004 (Mice (C57BL/6) [4]; hair growth score): less than 50%
wildtype mouse osteopontin: wildtype mouse osteopontin protein, comparator in Example A																					effect on hair growth (male wtC57BL/6N mice): no detectable effect on hair growth
